Assay results published in patent US9423396B2, “Bodipy structure fluorescence probes for diverse biological applications” (National University of Singapore, priority 2011, dated 2016).

Test: Spectroscopic measurements (absorption, emission, quantum yield, extinction coefficient)
Assay type: physicochemical
Conditions: BDNCA library; for Abs: absorption; for Flu-Abs: difference emission minus absorption; for ε: extinction coefficient, in M-1 cm-1 (unit assumed); for Flu: fluorescence emission

Row | SMILES | Qunt. Yield | Abs [nm] | Flu-Abs | ε | Flu
1 | Cc1cc(/C=C/c2ccccc2OCC(=O)O)n2c1C(c1ccc(NC(=O)CCl)cc1)=C1C=CC=[N+]1[B-]2(F)F [BDNCA-128] | 0.02 | 559 | 25 | 14,554 | 584
2 | CC1=CC(/C=C/c2ccc(O)c([N+](=O)[O-])c2)=[N+]2C1=C(c1ccc(NC(=O)CCl)cc1)c1cccn1[B-]2(F)F [BDNCA-131] | weak | 643 | – | 18,124 | weak
3 | COc1ccc(/C=C/C2=[N+]3C(=C(c4ccc(NC(=O)CCl)cc4)c4cccn4[B-]3(F)F)C(C)=C2)cc1O [BDNCA-132] | 0.02 | 569 | 30 | 36,796 | 599
4 | CC1=CC(/C=C/c2[nH]cnc2C)=[N+]2C1=C(c1ccc(NC(=O)CCl)cc1)c1cccn1[B-]2(F)F [BDNCA-134] | weak | 566 | – | 12,082 | weak
5 | CC1=CC(/C=C/c2ccc(C)o2)=[N+]2C1=C(c1ccc(NC(=O)CCl)cc1)c1cccn1[B-]2(F)F [BDNCA-135] | 0.07 | 577 | 41 | 37,346 | 618
6 | CC1=CC(/C=C/c2ccc3ccccc3c2)=[N+]2C1=C(c1ccc(NC(=O)CCl)cc1)c1cccn1[B-]2(F)F [BDNCA-137] | 0.10 | 564 | 20 | 43,387 | 584
7 | CC1=CC(/C=C/c2ccc3c(c2)OCO3)=[N+]2C1=C(c1ccc(NC(=O)CCl)cc1)c1cccn1[B-]2(F)F [BDNCA-139] | 0.09 | 568 | 39 | 35,423 | 607
8 | CCCOc1ccc(/C=C/c2cc(C)c3n2[B-](F)(F)[N+]2=CC=CC2=C3c2ccc(NC(=O)CCl)cc2)cc1 [BDNCA-140] | 0.07 | 566 | 32 | 27,185 | 598
9 | CC1=CC(/C=C/c2ccccc2C)=[N+]2C1=C(c1ccc(NC(=O)CCl)cc1)c1cccn1[B-]2(F)F [BDNCA-143] | 0.13 | 555 | 22 | 50,801 | 577
10 | COc1cc(OC)c(OC)cc1/C=C/C1=[N+]2C(=C(c3ccc(NC(=O)CCl)cc3)c3cccn3[B-]2(F)F)C(C)=C1 [BDNCA-144] | weak | 585 | – | 62,609 | weak
11 | CC1=CC(/C=C/c2ccc(Cl)cc2Cl)=[N+]2C1=C(c1ccc(NC(=O)CCl)cc1)c1cccn1[B-]2(F)F [BDNCA-147] | 0.07 | 557 | 21 | 23,616 | 578
12 | CC1=CC(/C=C/c2ccc(O)cc2)=[N+]2C1=C(c1ccc(NC(=O)CCl)cc1)c1cccn1[B-]2(F)F [BDNCA-153] | 0.05 | 569 | 37 | 23,341 | 606
13 | CC1=CC(/C=C/c2ccc(OCCCN(C)C)cc2)=[N+]2C1=C(c1ccc(NC(=O)CCl)cc1)c1cccn1[B-]2(F)F [BDNCA-163] | 0.04 | 566 | 29 | 24,165 | 595
14 | CC1=CC(/C=C/c2ccc(C(C)(C)C)cc2)=[N+]2C1=C(c1ccc(NC(=O)CCl)cc1)c1cccn1[B-]2(F)F [BDNCA-177] | 0.15 | 558 | 23 | 73,867 | 581
15 | COc1ccc(Oc2ccc(/C=C/c3cc(C)c4n3[B-](F)(F)[N+]3=CC=CC3=C4c3ccc(NC(=O)CCl)cc3)cc2)cc1 [BDNCA-178] | 0.09 | 563 | 26 | 61,785 | 589
16 | COC(=O)c1ccc(-c2ccc(/C=C/C3=[N+]4C(=C(c5ccc(NC(=O)CCl)cc5)c5cccn5[B-]4(F)F)C(C)=C3)cc2)cc1 [BDNCA-179] | 0.14 | 566 | 23 | 52,998 | 589
17 | CC1=CC(/C=C/c2ccc(Cl)c(Cl)c2)=[N+]2C1=C(c1ccc(NC(=O)CCl)cc1)c1cccn1[B-]2(F)F [BDNCA-182] | 0.08 | 557 | 18 | 37,620 | 575
18 | CC1=CC(/C=C/c2c[nH]c3ccc(Br)cc23)=[N+]2C1=C(c1ccc(NC(=O)CCl)cc1)c1cccn1[B-]2(F)F [BDNCA-185] | 0.06 | 581 | 65 | 29,931 | 646
19 | COc1cccc(/C=C/C2=[N+]3C(=C(c4ccc(NC(=O)CCl)cc4)c4cccn4[B-]3(F)F)C(C)=C2)c1 [BDNCA-186] | 0.14 | 556 | 20 | 61,510 | 576

Row | SMILES | Qunt. Yield | Abs [nm] | Flu-Abs | ε | Flu
20 | Cc1cc(/C=C/c2ccccc2C(=O)O)n2c1C(c1ccc(NC(=O)CCl)cc1)=C1C=CC=[N+]1[B-]2(F)F [BDNCA-191] | 0.06 | 556 | 18 | 24,714 | 574
21 | COc1ccc(/C=C/c2cc(C)c3n2[B-](F)(F)[N+]2=CC=CC2=C3c2ccc(NC(=O)CCl)cc2)c(O)c1 [BDNCA-192] | 0.03 | 577 | 53 | 21,693 | 630
22 | COc1ccc(-c2ccc(/C=C/C3=[N+]4C(=C(c5ccc(NC(=O)CCl)cc5)c5cccn5[B-]4(F)F)C(C)=C3)o2)cc1Cl [BDNCA-195] | 0.01 | 605 | – | 21,968 | 681
23 | COc1ccccc1/C=C/c1cc(C)c2n1[B-](F)(F)[N+]1=CC=CC1=C2c1ccc(NC(=O)CCl)cc1 [BDNCA-198] | 0.15 | 561 | 26 | 76,064 | 587
24 | CC1=CC(/C=C/c2ccc(-c3cncnc3)cc2)=[N+]2C1=C(c1ccc(NC(=O)CCl)cc1)c1cccn1[B-]2(F)F [BDNCA-199] | 0.15 | 563 | 20 | 59,314 | 583
25 | C=CCOc1ccccc1/C=C/C1=[N+]2C(=C(c3ccc(NC(=O)CCl)cc3)c3cccn3[B-]2(F)F)C(C)=C1 [BDNCA-202] | 0.13 | 561 | 24 | 57,666 | 585
26 | COc1ccc(/C=C/c2cc(C)c3n2[B-](F)(F)[N+]2=CC=CC2=C3c2ccc(NC(=O)CCl)cc2)c(OC)c1 [BDNCA-206] | 0.13 | 574 | 44 | 44,485 | 618
27 | Cc1ccc(/C=C/c2cc(C)c3n2[B-](F)(F)[N+]2=CC=CC2=C3c2ccc(NC(=O)CCl)cc2)cc1 [BDNCA-208] | 0.12 | 558 | 23 | 64,805 | 581
28 | COc1cc(/C=C/C2=[N+]3C(=C(c4ccc(NC(=O)CCl)cc4)c4cccn4[B-]3(F)F)C(C)=C2)cc(OC)c1 [BDNCA-209] | 0.12 | 556 | 20 | 62,334 | 576
29 | COC(=O)c1ccc(/C=C/C2=[N+]3C(=C(c4ccc(NC(=O)CCl)cc4)c4cccn4[B-]3(F)F)C(C)=C2)cc1 [BDNCA-219] | 0.16 | 560 | 21 | 73,043 | 581
30 | COc1cc(Cl)c(/C=C/C2=[N+]3C(=C(c4ccc(NC(=O)CCl)cc4)c4cccn4[B-]3(F)F)C(C)=C2)c(Cl)c1O [BDNCA-220] | 0.01 | 559 | 24 | 40,915 | 583
31 | COc1cc(/C=C/C2=[N+]3C(=C(c4ccc(NC(=O)CCl)cc4)c4cccn4[B-]3(F)F)C(C)=C2)c(OCc2ccccc2)cc1OC [BDNCA-223] | weak | 583 | – | 59,863 | weak
32 | COc1cc(Br)cc(/C=C/C2=[N+]3C(=C(c4ccc(NC(=O)CCl)cc4)c4cccn4[B-]3(F)F)C(C)=C2)c1OC [BDNCA-228] | 0.13 | 558 | 19 | 63,707 | 577
33 | CC1=CC(/C=C/c2cccc3c2OCO3)=[N+]2C1=C(c1ccc(NC(=O)CCl)cc1)c1cccn1[B-]2(F)F [BDNCA-231] | 0.04 | 559 | 19 | 33,227 | 578
34 | Cc1ccc(/C=C/c2cc(C)c3n2[B-](F)(F)[N+]2=CC=CC2=C3c2ccc(NC(=O)CCl)cc2)s1 [BDNCA-236] | 0.11 | 577 | 31 | 72,220 | 608
35 | CC1=CC(/C=C/c2ccc(I)cc2)=[N+]2C1=C(c1ccc(NC(=O)CCl)cc1)c1cccn1[B-]2(F)F [BDNCA-237] | 0.13 | 560 | 19 | 70,572 | 579
36 | Cc1cc(/C=C/c2ccc(CO)o2)n2c1C(c1ccc(NC(=O)CCl)cc1)=C1C=CC=[N+]1[B-]2(F)F [BDNCA-238] | 0.05 | 575 | 33 | 40,366 | 608
37 | Cc1cc(/C=C/c2ccccc2OC(F)F)n2c1C(c1ccc(NC(=O)CCl)cc1)=C1C=CC=[N+]1[B-]2(F)F [BDNCA-240] | 0.08 | 554 | 19 | 47,506 | 573
38 | COc1c(Br)cc(Br)cc1/C=C/C1=[N+]2C(=C(c3ccc(NC(=O)CCl)cc3)c3cccn3[B-]2(F)F)C(C)=C1 [BDNCA-241] | 0.09 | 558 | 20 | 48,879 | 578
